{"source": "patent US12433875B2", "about": "“(R)-4-(1-(6-(4-(trifluoromethyl)benzyl)-6-azaspiro[2.5]octane-5-carboxamido)-cyclopropyl) benzoic acid or its salt also in polymorphic form a for use in the prevention of heterotopic ossification” (ROTTAPHARM BIOTECH S.R.L., priority 2019, dated 2025)", "key": {"[1]": {"test_system": "human osteoblasts from patients with Osteoarthritis", "test": "Pathological osteoblast proliferation induced by IL-1β, MTT assay", "type": "cell-based", "details": "IL-1β 2 ng/ml; time course 24 h, 6, 9 and 14 days; low concentrations; FIG. 11", "description": "Human osteoblasts were purified from material obtained from patients undergoing knee replacement. Trabecular bone cells were isolated by spontaneous outgrowth culture methods. Purified osteoblasts were stimulated with IL-1β 2 ng/ml. Osteoblast proliferation was studied by MTT analysis in time course experiments (24 h, 6, 9, and 14 days). The form A of the sodium salt of (R)-4-(1-(6-(4-(trifluoromethyl)benzyl)-6-azaspiro[2.5]octane-5-carboxamido)cyclopropyl)benzoic acid resulted to be extremely effective in preventing in vitro osteoblast proliferation stimulated by IL1b.\nThis model has been performed to understand if the compound of the invention could correct the pathological hyperproliferation of osteoblasts taken from patients suffering from degenerative pathologies eventually resulting in a total joint replacement surgical procedure.\nTrabecular bone of the tibial plateau was obtained from patients with Osteoarthritis (OA) undergoing joint replacement surgery. This material was purchased from Alphenyx (Marseille, France). […] The cell proliferation was analysed in a time course protocol by MTT assay. […] MTT was a tetrazolium salt especially useful to quantify living metabolically active cells. […] The plate was then read at λ=540 nm. […]"}, "[2]": {"test_system": "PBMC's from healthy volunteers (Th17 IL-17F memory cells)", "test": "Human T-helper (Th) cell polarization, flow cytometry", "type": "cell-based", "details": "100 nM; rIL-2 and rIL-21 5 ng/ml, anti-CD3 and anti-CD28 1.5 ng/ml, PGE2 30 nM, 48 hour; FIG. 12", "description": "FIG. 12a is the spydergram illustrating the preferential inhibitory effect of the form A of the sodium salt of (R)-4-(1-(6-(4-(trifluoromethyl)benzyl)-6-azaspiro[2.5]octane-5-carboxamido)cyclopropyl)benzoic acid on Th17 polarization towards Th17 IL-17F memory cells induced by a stimulation with rIL-2 and rIL-21 (both at 5 ng/ml) in combination with anti-CD3 and anti-CD28 (both at 1.5 ng/ml) co-stimulated with PGE2 (30 nM) over a 48 hour. Stimulated cells were normalized to 100%.\nFIG. 12b represents the percent of Th17 IL-17F memory cell stimulation (mean±sem) of cells taken by individual donors vs. their baseline levels in the absence or in the presence of 100 nM form A of the sodium salt of (R)-4-(1-(6-(4-(trifluoromethyl)benzyl)-6-azaspiro[2.5]octane-5-carboxamido)cyclopropyl)benzoic acid.\nIn this model the ability of the Form A of the sodium salt of (R)-4-(1-(6-(4-(trifluoromethyl)benzyl)-6-azaspiro[2.5]octane-5-carboxamido)cyclopropyl)benzoic acid to interacts with the immunological features able to influence pathological bone formation was studied. Specifically, the effect of the Form A of the sodium salt of (R)-4-(1-(6-(4-(trifluoromethyl)benzyl)-6-azaspiro[2.5]octane-5-carboxamido)cyclopropyl)benzoic acid on the Th-cell polarization in human Tcells stimulated by inflammatory agents was studied. […]"}}, "data": [{"smiles": "O=C([O-])c1ccc(C2(NC(=O)[C@H]3CC4(CCN3Cc3ccc(C(F)(F)F)cc3)CC4)CC2)cc1.[Na+]", "note": "[Form A, sodium (R)-4-(1-(6-(4-(trifluoromethyl)benzyl)-6-azaspiro[2.5]octane-5-carboxamido)cyclopropyl)benzoate]", "values": [{"measurement": "osteoblast proliferation (MTT)", "setting": "[1]", "result": "able to dose-dependently counteract osteoblast proliferation"}, {"measurement": "polarization of Th17 cells towards IL-17F producing population (Th17 IL-17F memory cells)", "setting": "[2]", "result": "reduce significantly the polarization of Th17 cells towards a population capable to produce IL-17F"}]}]}
